This assay has as its system Bovine cardiac myofibrils. Put plainly: In vitro model of dose-dependent myofibril ATPase modulation (AC1.4, pyruvate kinase/lactate dehydrogenase-coupled ATPase assay at pCa25). The conditions noted are these: concentration at which ATPase activity was 1.4-fold higher than the bottom of the dose curve, mean of a minimum of two independent tests. Format: biochemical. A digest of the protocol:
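Bovine cardiac myofibrils, detergent-treated; 0.25-1.0 mg/ml. Buffer: K-PIPES 12 mM, MgCl2 2 mM, DTT 1 mM, BSA 0.1 mg/ml, pH 6.80, 22° C; Ca2+ set by EGTA/CaCl2. ATP 1 mM, NADH/PEP-coupled, A340. 4-parameter fit; n≥2.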

Take `N#CC1CN(S(=O)(=O)N2CCC[C@H](C(=O)N3CCC[C@@H]3C(=O)NCc3ccc(F)cc3)C2)C1` [Example 437, 1-(((3S)-1-((3-cyano-1-azetidinyl)sulfonyl)-3-piperidinyl)carbonyl)-N-(4-fluorobenzyl)-D-prolinamide]: the AC1.4 amounted to 1.7085 µM.
The result for `N#CC1CN(S(=O)(=O)N2CCC[C@H](C(=O)N3CCC[C@@H]3C(=O)NCc3cccc(Cl)c3)C2)C1` [Example 438, N-(3-chlorobenzyl)-1-(((3S)-1-((3-cyano-1-azetidinyl)sulfonyl)-3-piperidinyl)carbonyl)-D-prolinamide] reads 1.712 µM; that for `Cc1cc(CNC(=O)[C@H]2CCCN2C(=O)[C@H]2CCCN(S(=O)(=O)N3CC(C#N)C3)C2)ccc1F` [Example 439, 1-(((3S)-1-((3-cyano-1-azetidinyl)sulfonyl)-3-piperidinyl)carbonyl)-N-(4-fluoro-3-methylbenzyl)-D-prolinamide], 1.7125 µM; that for `N#CC1CN(S(=O)(=O)N2CCC[C@H](C(=O)N3CCC[C@@H]3C(=O)NCc3cc(F)ccc3Cl)C2)C1` [Example 440, N-(2-chloro-5-fluorobenzyl)-1-(((3S)-1-((3-cyano-1-azetidinyl)sulfonyl)-3-piperidinyl)carbonyl)-D-prolinamide], 1.7235 µM.
`N#CC1CN(S(=O)(=O)N2CCC[C@H](C(=O)N3CCC[C@@H]3C(=O)N[C@@H](CO)c3ccc(Cl)c(F)c3)C2)C1` [Example 441, N-((1R)-1-(4-chloro-3-fluorophenyl)-2-hydroxyethyl)-1-(((3S)-1-((3-cyano-1-azetidinyl)sulfonyl)-3-piperidinyl)carbonyl)-D-prolinamide] registered an AC1.4 of 1.7265 µM.
The result for `N#CC1CN(S(=O)(=O)N2CCC[C@H](C(=O)N3CCC[C@@H]3C(=O)NC3CCc4ccccc43)C2)C1` (stereo partly drawn) [Example 442, (2R)-1-((S)-1-((3-cyanoazetidin-1-yl)sulfonyl)piperidine-3-carbonyl)-N-(2,3-dihydro-1H-inden-1-yl)pyrrolidine-2-carboxamide] reads 1.7305 µM.
As for `Cc1cc(Cl)cc(CNC(=O)[C@H]2CCCN2C(=O)[C@H]2CCCN(S(=O)(=O)N3CC(C#N)C3)C2)c1` [Example 443, N-(3-chloro-5-methylbenzyl)-1-(((3S)-1-((3-cyano-1-azetidinyl)sulfonyl)-3-piperidinyl)carbonyl)-D-prolinamide], the AC1.4 was 1.7885 µM.
The result for `CS(=O)(=O)c1ccnc(C(=O)N2[C@@H](C(=O)N[C@@H](c3ccc(C(F)(F)F)cc3F)C3CC3)C[C@H]3C[C@H]32)c1` [Example 444, (1R,3R,5R)-N-((R)-cyclopropyl(2-fluoro-4-(trifluoromethyl)phenyl)methyl)-2-(4-(methylsulfonyl)picolinoyl)-2-azabicyclo[3.1.0]hexane-3-carboxamide] reads 1.547 µM; that for `Cc1cc(CNC(=O)[C@H]2CCCN2C(=O)[C@H]2CCCN(S(=O)(=O)N3CC(C#N)C3)C2)cc(C)c1F` [Example 445, 1-(((3S)-1-((3-cyano-1-azetidinyl)sulfonyl)-3-piperidinyl)carbonyl)-N-(4-fluoro-3,5-dimethylbenzyl)-D-prolinamide], 1.823 µM.
For `NS(=O)(=O)c1cccc(C(=O)N2CC(F)(F)C[C@@H]2C(=O)N[C@@H](c2ccc(C(F)(F)F)cc2F)C2CC2)c1` [Example 446, N-((R)-cyclopropyl(2-fluoro-4-(trifluoromethyl)phenyl)methyl)-4,4-difluoro-1-(3-sulfamoylbenzoyl)-D-prolinamide], the AC1.4 was 1.826 µM.
Molecule `N#CC1CN(S(=O)(=O)N2CCC[C@H](C(=O)N3CCC[C@@H]3C(=O)NCc3ccc(C4CC4)cc3)C2)C1` [Example 447, 1-(((3S)-1-((3-cyano-1-azetidinyl)sulfonyl)-3-piperidinyl)carbonyl)-N-(4-cyclopropylbenzyl)-D-prolinamide] came in with an AC1.4 of 1.831 µM.
Consider `N#CC1CN(S(=O)(=O)N2CCC[C@H](C(=O)N3CCOC[C@@H]3C(=O)NCc3ccc(C(F)F)cc3)C2)C1` [Example 448, (3R)-4-(((3S)-1-((3-cyano-1-azetidinyl)sulfonyl)-3-piperidinyl)carbonyl)-N-(4-(difluoromethyl)benzyl)-3-morpholinecarboxamide], for which the AC1.4 was found to be 1.844 µM.
Molecule `O=C(NCc1ccc(C(F)(F)F)cc1F)[C@H]1CCCN1C(=O)c1cccc(S(=O)(=O)N2CC(O)C2)c1` [Example 449, N-(2-fluoro-4-(trifluoromethyl)benzyl)-1-(3-((3-hydroxy-1-azetidinyl)sulfonyl)benzoyl)-D-prolinamide] returned an AC1.4 of 1.845 µM.
`O=C(NCc1ccc(C(F)(F)F)cc1)[C@H]1CCCN1C(=O)[C@H]1CCCN(S(=O)(=O)N2CC(F)(C3CC3)C2)C1` [Example 450, 1-(((3S)-1-((3-cyclopropyl-3-fluoro-1-azetidinyl)sulfonyl)-3-piperidinyl)carbonyl)-N-(4-(trifluoromethyl)benzyl)-D-prolinamide]: the AC1.4 was 1.8545 µM.
`O=C(N[C@@H](c1ccc(C(F)(F)F)cc1F)C1CC1)[C@H]1CCCN1C(=O)c1cccc(C2(F)CN(S(=O)(=O)C3COC3)C2)c1` [Example 451, N-((R)-cyclopropyl(2-fluoro-4-(trifluoromethyl)phenyl)methyl)-1-(3-(3-fluoro-1-(3-oxetanylsulfonyl)-3-azetidinyl)benzoyl)-D-prolinamide] registered an AC1.4 of 1.8635 µM.
The molecule `Cc1ccc(C(C)NC(=O)[C@H]2CCCN2C(=O)[C@H]2CCCN(S(=O)(=O)N3CC(C#N)C3)C2)cc1` (stereo partly drawn) [Example 452, (2R)-1-((S)-1-((3-cyanoazetidin-1-yl)sulfonyl)piperidine-3-carbonyl)-N-(1-(p-tolyl)ethyl)pyrrolidine-2-carboxamide] returned an AC1.4 of 1.8655 µM.
The result for `CC[C@@H](NC(=O)[C@H]1CCCN1C(=O)c1cccc(S(C)(=O)=O)c1)c1cc(F)c(Cl)cc1F` [Example 453, N-((1R)-1-(4-chloro-2,5-difluorophenyl)propyl)-1-(3-(methylsulfonyl)benzoyl)-D-prolinamide] reads 1.5515 µM; that for `O=C(NCc1ccc(C(F)(F)F)cc1)[C@H]1CCCN1C(=O)c1cccc(S(=O)(=O)Cc2ccccc2)c1` [Example 454, 1-(3-(benzylsulfonyl)benzoyl)-N-(4-(trifluoromethyl)benzyl)-D-prolinamide], 1.8665 µM.
In the case of `C[C@H](C(=O)NCc1cccc(C(F)(F)F)c1)N(C)C(=O)c1cccc(S(=O)(=O)N2CC(C#N)C2)c1` [Example 455, 3-((3-cyano-1-azetidinyl)sulfonyl)-N-methyl-N-((1R)-1-methyl-2-oxo-2-((3-(trifluoromethyl)benzyl)amino)ethyl)benzamide], the AC1.4 is 1.877 µM.
`N#CC1(c2cccc(C(=O)N3[C@@H](C(=O)N[C@@H](c4ccc(C(F)(F)F)cc4F)C4COC4)C[C@H]4C[C@H]43)c2)CC1` [Example 456, (1R,3R,5R)-2-(3-(1-cyanocyclopropyl)benzoyl)-N-((R)-(2-fluoro-4-(trifluoromethyl)phenyl)(3-oxetanyl)methyl)-2-azabicyclo[3.1.0]hexane-3-carboxamide] gave an AC1.4 of 1.882 µM.
In turn, `COc1ccc(CNC(=O)[C@H]2CCCN2C(=O)[C@H]2CCCN(S(=O)(=O)N3CC(C#N)C3)C2)cc1F` [Example 457, 1-(((3S)-1-((3-cyano-1-azetidinyl)sulfonyl)-3-piperidinyl)carbonyl)-N-(3-fluoro-4-methoxybenzyl)-D-prolinamide] registered an AC1.4 of 1.8865 µM.
As to `Cc1cc(C(=O)N2[C@@H](C(=O)N[C@@H](c3ccc(C(F)(F)F)cc3F)C3CC3)C[C@H]3C[C@H]32)c(NC2CC2)cn1` [Example 458, (1R,3R,5R)-2-((5-(cyclopropylamino)-2-methyl-4-pyridinyl)carbonyl)-N-((R)-cyclopropyl(2-fluoro-4-(trifluoromethyl)phenyl)methyl)-2-azabicyclo[3.1.0]hexane-3-carboxamide], the AC1.4 worked out at 1.5845 µM.
With `CN(C)S(=O)(=O)c1cccc(C(=O)N2CCC[C@@H]2C(=O)NCc2ccc(C(F)(F)F)cc2F)c1` [Example 459, 1-(3-(dimethylsulfamoyl)benzoyl)-N-(2-fluoro-4-(trifluoromethyl)benzyl)-D-prolinamide], the AC1.4 turned out to be 1.8995 µM.
As for `N#CC1CC(S(=O)(=O)c2cccc(C(=O)N3CCCC[C@@H]3C(=O)NCc3ccc(C(F)(F)F)nc3)c2)C1` (stereo partly drawn) [Example 460, (R)-1-(3-((3-cyanocyclobutyl)sulfonyl)benzoyl)-N-((6-(trifluoromethyl)pyridin-3-yl)methyl)piperidine-2-carboxamide], the AC1.4 worked out at 1.915 µM.
Take `O=C(NCc1ccc(C(F)(F)F)cc1)[C@H]1CCCN1C(=O)c1cccc(S(=O)(=O)N2CC(F)(F)C2)c1` [Example 461, 1-((3-((3,3-difluoro-1-azetidinyl)sulfonyl)phenyl)carbonyl)-N-(4-(trifluoromethyl)benzyl)-D-prolinamide]: the AC1.4 amounted to 1.9174 µM.
In turn, `C[C@H](NC(=O)[C@H]1CCCN1C(=O)[C@H]1CCCN(S(=O)(=O)N2CC(C#N)C2)C1)c1ccc(Cl)c(F)c1` [Example 462, N-((1S)-1-(4-chloro-3-fluorophenyl)ethyl)-1-(((3S)-1-((3-cyano-1-azetidinyl)sulfonyl)-3-piperidinyl)carbonyl)-D-prolinamide] showed an AC1.4 of 1.9235 µM.
`O=C(NCc1ccc(C(F)(F)F)cc1)[C@H]1CCCN1C(=O)[C@H]1CCCN(S(=O)(=O)N2CC(F)(c3ccccc3)C2)C1` [Example 463, 1-(((3S)-1-((3-fluoro-3-phenyl-1-azetidinyl)sulfonyl)-3-piperidinyl)carbonyl)-N-(4-(trifluoromethyl)benzyl)-D-prolinamide]: the AC1.4 is 1.9305 µM.
`CS(=O)(=O)c1ccc(F)c(C(=O)N2CCC[C@@H]2C(=O)N[C@@H](c2ccc(C(F)(F)F)cc2F)C2CC2)c1` [Example 464, N-((R)-cyclopropyl(2-fluoro-4-(trifluoromethyl)phenyl)methyl)-1-(2-fluoro-5-(methylsulfonyl)benzoyl)-D-prolinamide] had an AC1.4 of 1.612 µM.

The record behind these values is patent publication US11780826B2 (Amgen Inc., priority 2017, dated 2023).
